Experimental data from US5789431A, “Naphthoquinone antitumor compound and method” (The University of North Carolina at Chapel Hill, priority 1996, dated 1998).

What was measured:
[1] = tested on: UO-31; assay: in vitro renal cancer cell growth inhibition (NCI screen)
[2] = tested on: M14; assay: in vitro melanoma cell growth inhibition (NCI screen)
[3] = tested on: HOP-92; assay: in vitro non-small cell lung cancer cell growth inhibition (NCI screen)
[4] = tested on: MDA-N; assay: in vitro breast cancer cell growth inhibition (NCI screen)
[5] = tested on: OVCAR-3; assay: in vitro ovarian cancer cell growth inhibition (NCI screen)
[6] = tested on: SK-MEL-5; assay: in vitro melanoma cell growth inhibition (NCI screen)
[7] = tested on: HCT-116; assay: in vitro colon cancer cell growth inhibition (NCI screen)
[8] = tested on: MDA-MB-435; assay: in vitro breast cancer cell growth inhibition (NCI screen)
[9] = tested on: NCI-H23; assay: in vitro non-small cell lung cancer cell growth inhibition (NCI screen)
[10] = tested on: TK-10; assay: in vitro renal cancer cell growth inhibition (NCI screen)
[11] = tested on: NCI-H522; assay: in vitro non-small cell lung cancer cell growth inhibition (NCI screen)
[12] = tested on: MDA-MB-231/ATCC; assay: in vitro breast cancer cell growth inhibition (NCI screen)
[13] = tested on: SK-MEL-2; assay: in vitro melanoma cell growth inhibition (NCI screen)
[14] = tested on: SW 620; assay: in vitro colon cancer cell growth inhibition (NCI screen)
[15] = tested on: LOX1MVI; assay: in vitro melanoma cell growth inhibition (NCI screen)
[16] = tested on: UACC-62; assay: as above
[17] = tested on: UACC-257; assay: as above
[18] = tested on: COLO-205; assay: in vitro colon cancer cell growth inhibition (NCI screen)
[19] = tested on: NCI-H460; assay: in vitro non-small cell lung cancer cell growth inhibition (NCI screen)
[20] = tested on: RXF-393; assay: in vitro renal cancer cell growth inhibition (NCI screen)
[21] = tested on: SF-539; assay: in vitro CNS cancer cell growth inhibition (NCI screen)
[22] = tested on: human tumor cell lines; assay type: cell-based; conditions: for GI50: Homo sapiens, cancer cell panel, general / most cell lines, read-out: logGI50 values in the cancer cell line panel (converted)
[23] = tested on: MALME-3M; assay: in vitro melanoma cell growth inhibition (NCI screen)
[24] = tested on: SNB-75; assay: in vitro CNS cancer cell growth inhibition (NCI screen)
[25] = tested on: IGROV1; assay: in vitro ovarian cancer cell growth inhibition (NCI screen)
[26] = tested on: NCI-H266; assay: in vitro non-small cell lung cancer cell growth inhibition (NCI screen)
[27] = tested on: HT 29; assay: in vitro colon cancer cell growth inhibition (NCI screen)
[28] = tested on: PC-3; assay: in vitro prostate cancer cell growth inhibition (NCI screen)
[29] = tested on: SN12C; assay: in vitro renal cancer cell growth inhibition (NCI screen)
[30] = tested on: T-47D; assay: in vitro breast cancer cell growth inhibition (NCI screen)
[31] = tested on: BT-549; assay: as above
[32] = tested on: OVCAR-4; assay: in vitro ovarian cancer cell growth inhibition (NCI screen); conditions: OVACR-4
[33] = tested on: SNB-19; assay: in vitro CNS cancer cell growth inhibition (NCI screen)
[34] = tested on: HCT-15; assay: in vitro colon cancer cell growth inhibition (NCI screen)
[35] = tested on: MCF-7; assay: in vitro breast cancer cell growth inhibition (NCI screen)
[36] = tested on: HL-60(TB); assay: in vitro leukemia cell growth inhibition (NCI screen)
[37] = tested on: MCF7/ADR-RES; assay: in vitro breast cancer cell growth inhibition (NCI screen)
[38] = tested on: SK-OV-3; assay: in vitro ovarian cancer cell growth inhibition (NCI screen)
[39] = tested on: MOLT-4; assay: in vitro leukemia cell growth inhibition (NCI screen)
[40] = tested on: K-562; assay: as above
[41] = tested on: ACHN; assay: in vitro renal cancer cell growth inhibition (NCI screen)
[42] = tested on: U 251; assay: in vitro CNS cancer cell growth inhibition (NCI screen)
[43] = tested on: HOP-62; assay: in vitro non-small cell lung cancer cell growth inhibition (NCI screen)
[44] = tested on: DLD-1; assay: in vitro colon cancer cell growth inhibition (NCI screen)
[45] = tested on: LXFL 529; assay: in vitro non-small cell lung cancer cell growth inhibition (NCI screen)
[46] = tested on: KM 20L2; assay: in vitro colon cancer cell growth inhibition (NCI screen)

Row | SMILES | cytotoxicity log GI50 [2] | cytotoxicity log GI50 [4] | cytotoxicity log GI50 [5] | cytotoxicity log GI50 [8] | cytotoxicity log GI50 [9] | cytotoxicity log GI50 [10] | cytotoxicity log GI50 [11] | cytotoxicity log GI50 [12] | cytotoxicity log GI50 [14] | cytotoxicity log GI50 [16] | cytotoxicity log GI50 [17] | cytotoxicity log GI50 [18] | cytotoxicity log GI50 [19] | cytotoxicity log GI50 [20] | cytotoxicity log GI50 [21] | cytotoxicity log GI50 [23] | cytotoxicity log GI50 [25] | cytotoxicity log GI50 [27] | cytotoxicity log GI50 [28] | cytotoxicity log GI50 [32] | also measured
1 | O=C(O)CCc1nc2c(n1Cc1ccccc1)C(=O)c1ccccc1C2=O [Compound 61] | -4.67 M | -4.67 M | -4.55 M | -4.72 M | -4.52 M | -4.47 M | -4.62 M | -4.47 M | -4.50 M | -4.42 M | -4.47 M | -4.47 M | -4.42 M | -4.60 M | -4.55 M |  |  |  |  |  | cytotoxicity log GI50 [1]: -4.51 M; cytotoxicity log GI50 [3]: -5.26 M; cytotoxicity log GI50 [6]: -4.67 M; cytotoxicity log GI50 [7]: -4.44 M; cytotoxicity log GI50 [13]: -4.59 M; cytotoxicity log GI50 [15]: -4.57 M
2 | CCc1nc2c(n1CC)C(=O)c1ccccc1C2=O [Compound 23] | -4.63 M |  | -4.73 M | -4.74 M |  | -4.66 M |  | -4.77 M | -4.57 M | -4.54 M | -4.60 M | -4.77 M |  | -4.70 M |  | -4.81 M | -4.61 M | -4.60 M | -4.73 M |  | GI50 [22]: ~10 µM; cytotoxicity log GI50 [24]: -4.68 M; cytotoxicity log GI50 [26]: -4.54 M; cytotoxicity log GI50 [29]: -4.56 M; cytotoxicity log GI50 [30]: -4.74 M; cytotoxicity log GI50 [31]: -4.76 M
3 | COC(=O)CCC(=O)NC1=C(NCc2ccccc2)C(=O)c2ccccc2C1=O [Compound 55] | -4.73 M | -4.79 M | -5.40 M | -4.72 M | -4.67 M |  | -4.72 M |  | -4.70 M | -4.76 M | -4.78 M | -4.69 M | -4.74 M |  | -4.70 M |  | -4.75 M |  |  | -4.73 M | cytotoxicity log GI50 [3]: -4.80 M; cytotoxicity log GI50 [6]: -4.92 M; cytotoxicity log GI50 [13]: -4.73 M; cytotoxicity log GI50 [15]: -4.66 M; cytotoxicity log GI50 [33]: -4.66 M; cytotoxicity log GI50 [34]: -4.77 M; cytotoxicity log GI50 [35]: -4.76 M; cytotoxicity log GI50 [36]: -4.66 M
4 | CCNC1=C(NC(=O)c2ccccc2)C(=O)c2ccccc2C1=O [Compound 47] | -4.58 M | -5.31 M | -4.47 M | -5.14 M |  |  | -4.95 M | -5.21 M | -4.63 M | -4.70 M | -4.63 M | -4.78 M |  | -4.62 M |  | -4.77 M |  |  | -4.74 M |  | cytotoxicity log GI50 [7]: -4.59 M; cytotoxicity log GI50 [37]: -4.78 M; cytotoxicity log GI50 [38]: -4.62 M; cytotoxicity log GI50 [34]: -4.73 M; cytotoxicity log GI50 [30]: -4.85 M
5 | Cc1nc2c(n1CCCl)C(=O)c1ccccc1C2=O [Compound 21, 1-(2'-Chloroethyl)-2-methylnaphth[2,3-d]imidazole-4,9-dione] | -5.33 M |  |  | -4.82 M |  |  |  | -4.81 M |  | -4.89 M | -4.85 M | -4.85 M | -4.83 M | -6.78 M |  | -5.24 M | -4.94 M | -4.80 M | -5.07 M | -4.83 M | cytotoxicity log GI50 [1]: -6.22 M; cytotoxicity against tumor cells (in words) ([22]; cancer cell line panel): comparable to those of compounds 6-14; cytotoxicity log GI50 [39]: -4.89 M; cytotoxicity log GI50 [37]: -4.79 M; cytotoxicity log GI50 [24]: -4.84 M; cytotoxicity log GI50 [40]: -4.80 M; cytotoxicity log GI50 [41]: -6.32 M; cytotoxicity log GI50 [38]: -5.28 M; cytotoxicity log GI50 [42]: -4.90 M; cytotoxicity log GI50 [34]: -5.10 M; cytotoxicity log GI50 [36]: -4.79 M
6 | CCn1c(-c2ccc(OC)cc2)nc2c1C(=O)c1ccccc1C2=O [Compound 27] |  |  |  |  | -4.21 M |  |  |  |  |  |  |  |  |  |  |  |  |  |  |  | GI50 [22]: ~10 µM; cytotoxicity log GI50 [43]: -4.22 M
7 | O=C1c2ccccc2C(=O)c2[nH]c(Cc3ccccc3F)nc21 [Compound 4b] |  |  | -4.84 M |  | -4.56 M | -4.53 M | -4.67 M |  | -4.42 M |  |  | -4.47 M | -4.47 M | -4.69 M | -4.51 M |  |  | -4.49 M |  | -4.55 M | cytotoxicity log GI50 [44]: -4.79 M; cytotoxicity log GI50 [45]: -4.50 M; cytotoxicity log GI50 [33]: -4.42 M; cytotoxicity log GI50 [42]: -5.10 M; cytotoxicity log GI50 [46]: -4.47 M; cytotoxicity log GI50 [36]: -4.45 M
